Values quoted from earlier work as cited in patent US7232830B2, “Method for treatment of neurodegenerative diseases and effects of aging” (priority 1998, dated 2007).
Structures can show the parent of a compound that is named as a salt.

Key:
[1] = system: histamine metabolism in the mouse brain
MAO-B = molecular target: T1, MAO-B (Rattus norvegicus, UniProt P19643); conditions: in vitro, rat brain
T1 construct: in vitro on monoamine oxidase activity in the rat brain; host or cells: rat brain
T1 sequence (P19643 1-520): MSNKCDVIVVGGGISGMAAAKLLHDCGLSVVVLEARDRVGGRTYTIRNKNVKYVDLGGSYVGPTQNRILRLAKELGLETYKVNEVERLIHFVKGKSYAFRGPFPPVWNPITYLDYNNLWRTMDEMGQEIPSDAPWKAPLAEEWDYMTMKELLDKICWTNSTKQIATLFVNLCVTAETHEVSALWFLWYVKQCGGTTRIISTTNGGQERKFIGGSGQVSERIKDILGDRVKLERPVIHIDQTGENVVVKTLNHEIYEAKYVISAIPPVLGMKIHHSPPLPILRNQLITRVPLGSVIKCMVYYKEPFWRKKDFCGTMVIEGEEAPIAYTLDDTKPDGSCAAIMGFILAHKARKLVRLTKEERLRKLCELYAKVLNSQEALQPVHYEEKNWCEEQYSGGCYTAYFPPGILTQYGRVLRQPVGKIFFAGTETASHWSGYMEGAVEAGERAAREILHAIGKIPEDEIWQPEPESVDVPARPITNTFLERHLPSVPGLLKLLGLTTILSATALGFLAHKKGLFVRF

Compound | effect on a histidine decarboxylase inhibitor [1] | effect on histamine increase induced by a histamine N-methyltransferase inhibitor [1] | effect on MAO-B (MAO-B)
COC(=O)[C@H]1[C@H]2C[C@@H]3c4[nH]c5cc(OC)ccc5c4CCN3C[C@H]2C[C@@H](OC(=O)c2cc(OC)c(OC)c(OC)c2)[C@@H]1OC [reserpine] | no significant affect | inhibited the histamine increase | 
S=C(NC1CCCCC1)N1CCC(c2cnc[nH]2)CC1 [thioperamide maleate] |  |  | inhibits MAO-B
